Reference: patent publication US8119773B2, “Compositions and methods for facilitating heme-iron export from cells” (University of Washington, priority 2007, dated 2012)
pKd: −log10 of the molar value. Ends that are not written are not given here.

Assays:
human FLVCR = target: T1, human FLVCR (Homo sapiens, UniProt Q9Y5Y0); test: ZnMP export from NRK cells engineered to express human FLVCR, with carrier protein; format: cell-based; conditions: NRK cells expressing human FLVCR; 37° C. for 90 min
T1 construct: expressed in transfected cells; host or cells: NRK (rat kidney) cells engineered to express human FLVCR
T1 sequence (Q9Y5Y0 1-555): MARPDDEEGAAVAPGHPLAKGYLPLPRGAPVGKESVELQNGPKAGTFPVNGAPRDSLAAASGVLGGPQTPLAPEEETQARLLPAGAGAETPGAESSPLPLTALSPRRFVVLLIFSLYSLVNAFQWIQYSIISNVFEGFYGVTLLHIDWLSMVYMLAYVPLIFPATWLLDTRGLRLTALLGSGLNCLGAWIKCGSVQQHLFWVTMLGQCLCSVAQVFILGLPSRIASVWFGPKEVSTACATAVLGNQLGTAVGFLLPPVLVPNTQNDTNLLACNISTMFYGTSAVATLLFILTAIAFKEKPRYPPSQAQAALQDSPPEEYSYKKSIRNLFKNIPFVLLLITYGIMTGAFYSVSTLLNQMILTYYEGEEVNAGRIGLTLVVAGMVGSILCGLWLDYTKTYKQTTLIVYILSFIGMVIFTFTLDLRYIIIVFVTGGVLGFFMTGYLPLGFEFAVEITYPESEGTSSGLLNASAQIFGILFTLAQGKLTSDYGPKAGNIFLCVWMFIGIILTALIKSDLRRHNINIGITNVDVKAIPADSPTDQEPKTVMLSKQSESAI
Source text: ZnMP and ^55Fe-hemin uptake and washout studies.
To gain insights into the structure and function of FLVCR, we first studied the export of zinc mesoporphyrin (ZnMP), a fluorescent heme analog that traffics similarly to heme and also blocks heme oxygenase activity.

[1] = heme binding; cited from earlier work
[2] = system: bone marrow-derived macrophages; test: Ferritin studies in macrophages (ELISA) with or without hepcidin; format: cell-based, mouse; conditions: control and Flvcr-deleted macrophages exposed to FAC (10 μM Fe) 24 hours, washed, then 24 hours with hepcidin (1 ug/ul)
Experimental: FIGS. 4A-4B. FLVCR exports heme-iron from macrophages. (4A) Bone marrow-derived macrophages from control (striped) and mice in which Flvcr was deleted neonatally (black) were incubated in the absence or presence of FAC (10 μM Fe) for 24 or 48 hours, then washed; ferritin was measured by enzyme-linked immunosorbent (ELISA) (i). Cells were incubated with FAC for 24 hours (ii) or with IgG-coated red blood cells (RBC) for 90 min (iii), washed, then incubated for an additional 24 hours with or without hepcidin (1 ug/ul) and ferritin assayed. Data represent ferritin values in macrophages derived from two control and two deleted mice±SEM of triplicate samples per mouse. (4B) Model of macrophage heme-iron recycling.
Murine macrophage culture. Single-cell suspensions of mouse bone marrow were collected from mice 5 days after completing poly(I)-poly(C) treatment. […] Macrophages were defined by flow cytometry (Mac-1^+, f4/80^+, GR-1^−) and analyzed for ZnMP and ^55Fe-hemin export 10-24 days post in vivo deletion (after 5-19 days in culture).
Ferritin studies in macrophages. […] After 24 hrs, the samples were collected in lysis buffer (150 mM NaCl, 10 mM EDTA, 1% Triton X-100, 10 mM Tris pH 7.4), and complete protease inhibitor (Roche Diagnostics Co., Indianapolis, Ind.) and analyzed for ferritin levels as described (S16).

Substance | efficacy in inducing ZnMP export, relative to albumin (human FLVCR) | pKd [1] | ferritin [2]
hemopexin [Hpx] | 100 fold | > 12.00 | 
hepcidin (DTHFPICIFCCGCCHRSKCGMCCKT; ends and bridges not checked; cysteine pairing not given here; UniProt P81172 60-84, looked up) |  |  | increase equivalently
